Results published in PubChem BioAssay (NCI).
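Cultured in 96-well plates, cells were exposed to test compound for 48 hours across five concentrations. GI50: concentration for 50% inhibition of growth. TGI: concentration producing complete growth inhibition.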

Columns and labels:
Test in all cases: growth of human tumour cells (NCI), 48 h
M14 melanoma = system: M14 melanoma
OVCAR-8 ovarian = system: OVCAR-8 ovarian
CAKI-1 renal = system: CAKI-1 renal
HCC-2998 colon = system: HCC-2998 colon
786-0 renal = system: 786-0 renal
SW-620 colon = system: SW-620 colon
SN12C renal = system: SN12C renal
IGROV1 ovarian = system: IGROV1 ovarian
SK-MEL-2 melanoma = system: SK-MEL-2 melanoma
PC-3 prostate = system: PC-3 prostate

| SMILES | GI50 (M14 melanoma) [µM] | TGI (M14 melanoma) [µM] | GI50 (OVCAR-8 ovarian) [µM] | TGI (OVCAR-8 ovarian) [µM] | GI50 (CAKI-1 renal) [µM] | TGI (CAKI-1 renal) [µM] | GI50 (HCC-2998 colon) [µM] | TGI (HCC-2998 colon) [µM] | GI50 (786-0 renal) [µM] | TGI (786-0 renal) [µM] | GI50 (SW-620 colon) [µM] | TGI (SW-620 colon) [µM] | GI50 (SN12C renal) [µM] | TGI (SN12C renal) [µM] | GI50 (IGROV1 ovarian) [µM] | TGI (IGROV1 ovarian) [µM] | GI50 (SK-MEL-2 melanoma) [µM] | TGI (SK-MEL-2 melanoma) [µM] | GI50 (PC-3 prostate) [µM] | TGI (PC-3 prostate) [µM] |
| --- | --- | --- | --- | --- | --- | --- | --- | --- | --- | --- | --- | --- | --- | --- | --- | --- | --- | --- | --- | --- |
| CC1(C)CC(O)CCCCCCOc2c(CN)cccc2NC(=O)c2nc(cnc2N)-c2ccc(cc2)S1(=O)=O (centres undefined) | 0.0927 | 2.58 | 2.14 | 5.87 | 1.15 | 2.6 | 2.01 | 4.24 | 0.0278 | 1.97 | 0.629 | 2.36 | 0.761 | 2.49 | 0.148 | 1.48 | 1.36 | 3.15 | 0.543 | 3.67 |
| CO[C@H]1/C=C/C[C@H](C)[C@@H](C)S(=O)(=O)NC(=O)c2ccc3c(c2)N(C[C@@H]2CC[C@H]21)C[C@@]1(CCCc2cc(Cl)ccc21)CO3 | 2.4 | 7.31 | 3.72 | 14.4 | 3.45 | 12.9 | 1.65 | 3.45 | 2.9 | 8.27 | 2.84 | 10.3 | 2.37 | 6.63 | 3.08 | 10.6 | 0.321 | 1.43 | 1.98 | 6.23 |
| C#CCOc1cccc(Nc2ncnc3c2ncn3C2CCN(C(=O)CCl)C2)c1 (centres undefined) | 16.9 | 48.5 | 30.7 | > 100 | 16.8 | 30.7 | 18.2 | 37.3 | 18.9 | 36.8 | 18.4 | 39.1 | 15.4 | 35.5 | 16.4 | 36.7 | 25.7 | 94.9 | 22.6 | 53 |
| O=C1c2c(O)cccc2C(C(=O)CCCC(=O)C2c3cccc(O)c3C(=O)c3c(O)cccc32)c2cccc(O)c21 |  | 2.48 |  | 2.77 |  | 4.45 |  | 3.4 |  | 9.72 |  | 14.3 |  | 12.2 |  | 2.41 |  | 0.861 |  | 0.467 |
| CC(C)(C)n1cc(-c2ccnc(NCCCNS(=O)(=O)c3ccc(Cl)cc3)c2)c(-c2cccc(O)c2)n1 | 1.72 | 3.45 | 2.22 | 5.81 | 2.06 | 5.35 | 1.76 | 3.24 | 2.03 | 4.54 | 1.77 | 3.56 | 1.65 | 3.1 | 1.88 | 4.39 | 1.92 | 3.89 | 1.36 | 3.69 |
| CCC(C)c1cnc(CC(C)C)c(=O)[nH]1 (centres undefined) |  | > 100 |  | > 100 |  | > 100 |  | > 100 |  | > 100 |  | > 100 |  | > 100 |  | > 100 |  | > 100 |  | > 100 |
| Cc1ccc(C(=O)Nc2ccccc2C(=O)N/N=C(\c2ccccc2)c2ccccn2)cc1 | 0.272 | 3.26 | 0.377 | > 100 | 0.324 | > 100 | 0.381 | > 100 | 0.362 | > 100 | 0.603 | > 100 | 0.76 | > 100 | 0.177 | > 100 |  | > 100 | 1.1 | > 100 |
